From patent US20040033982A1, “Viral inhibition by n-docosanol” (priority 2001, published 2004)

What was measured:
Format in all cases: cell-based
HSV-1(KOS)gL86 = assay: Entry of HSV-1(KOS)gL86 into HEp-2 cells (beta-galactosidase, OD600)
Description: After attachment of HEp2 cells to culture wells, n-docosanol-vehicle, vehicle alone, or no agent (control) was added. Five to six hours after infection, the cells were processed, X-gal was added, and the absorbance at 600 nm was determined.
Twenty-four hours before infection, cultured cells were seeded into 24-well (16-mm) plates at 2.5×10^6 cells/well in 0.5 ml cDMEM supplemented with 10% fetal bovine serum (FES). After cell attachment (4-6 h later) heparin, n-docosanol-surfactant, or surfactant alone was added to the cells in 0.5 ml DMEM/10% FES. The agents were dissolved in the medium at two times the desired final concentration. For infection, 0.7 ml of medium was removed from each well and 25 μl of virus suspension was added to the remaining 0.3 ml to give a virus dose of at least 20 p.f.u./cell The plates were rocked at 37° C. for 3 h and then put in a 37° C. […]
At 5-6 h after infection, the cells were fixed with PES containing 2% formaldehyde and 0.2% glutaraldehyde, washed, then permeabilized with 0.02% NP-40, 0.01% deoxycholate and 2 mM MgCl2. […] To quantify the amount of color in each well the glycerol was removed from all wells that were then washed 3× with distilled H2O. DMSO (0.6 ml) was added to solubilize the dye and, after transferring 100 μl of each sample well from the 24-well plate to a 96-well plate, the OD600 was recorded using a 96-well plate reader. […]

[1] = test system: acyclovir-resistant HSV-2; assay: Plaque formation by acyclovir-resistant HSV-2 in Vero cells; conditions: FIG. 7, Panel B
Description: (§1) FIG. 7 depicts data showing that n-docosanol inhibits acyclovir-resistant HSV-2. Vero cells were cultured in 35-mm wells (6×10^5 cells per well) in medium alone (=none) or in the presence of the indicated concentration of acyclovir, n-docosanol-Pluronic F-68 suspension or control suspension (Pluronic F-68 only). The cultures were inoculated 24 hours later with 150 PFU of either wild-type HSV-2 or an acyclovir-resistant laboratory isolate from the wild-type HSV-2 that was plaque purified and passaged in 20 μg/ml acyclovir 44 hours later, the plates were incubated, fixed, stained, and scored for numbers of plaques. The data presented are means of plaques scored from duplicate cultures. The percent inhibition observed in cultures treated with acyclovir or n-docosanol relative to untreated control cultures is denoted in parentheses.

wild-type HSV-2 = assay: Plaque formation by wild-type HSV-2 in Vero cells; conditions: FIG. 7, Panel A
Description: as §1

HSV-I = assay: Binding of [3H]HSV-I to Vero cells; conditions: virus at 2 p.f.u./cell; n-docosanol 15 mM
Excerpt: Attachment of HSV-I to specific cell surface receptors is unaffected in n-docosanol-treated cells. Previous studies have verified that attachment of HSV-1 to specific cell surface receptors is unaffected in n-docosanol-treated cells. […] Heparin inhibited this interaction 96%.

Compound: Nc1nc2c(ncn2COCCO)c(=O)[nH]1 [acyclovir, reference compound]
- inhibition of the beta-galactosidase signal (HSV-1(KOS)gL86): not inhibited
- inhibition of plaque formation [1]: not inhibited
- inhibition of plaque formation (wild-type HSV-2): inhibit plaque formation by wild type HSV-2 equally

Compound: Heparin [reference compound]
- concentration at which inhibition appeared to be complete (HSV-1(KOS)gL86; examined between 1 and 10 μg/ml): 6 µg/mL
- inhibition of [3H]HSV-I binding (HSV-I): 96%
